# Values quoted from earlier work as cited in US20050272714A1, “Use of targeted oxidative therapeutic formulation in treatment of diabetes and obesity” (priority 2004, published 2005).
# How the values were obtained:
# [1] = tested on: peroxide-sensitive E. coli; conditions: infused into the blood of infected rabbits
# E. coli = conditions: increasing concentration ex-vivo in rabbit or human blood
smiles,measurement,setting,value
OO [hydrogen peroxide],bactericidal effect,[1],no bactericidal effect
same,direct bactericidal activity,E. coli,no evidence of direct bactericidal activity
